Test results taken from publication PMC7893792 (ACS Omega, 2021).

B1: rOat3 (Rattus norvegicus) (protein)
chain: MTFSEILDRVGSMGPFQYLHVTLLALPVLGIANHNLLQIFTATTPVHHCRPPPNASIGPWVLPLDPNGKPEKCLRFVHLPNASLPNDTQRATEPCLDGWIYNSTRDTIVIEWDLVCSSNKLKEMAQSIFMAGILVGGPVIGELSDRFGRKPILTWSYLMLAASGSGAAFSPSLPVYMIFRFLCGCSISGISLSTVILNVEWVPTSMRAISSTSIGYCYTIGQFILSGLAYAIPQWRWLQLTSSAPFFIFSLLSWWVPESIRWLVLSGKYSKALKTLQRVATFNGKKEEGKKLTIEELKFNLQKDITSAKVKYGLSDLFRVSILRRVTFCLSLAWFSTGFAYYSLAMGVEEFGVNIYILQIIFGGVDIPAKFITILSLSYLGRRITQSFLLLLAGGAILALIFVPSEMQLLRTALAVFGKGCLSGSFSCLFLYTSELYPTVLRQTGMGISNVWARVGSMIAPLVKITGELQPFIPNVIFGTTALLGGSAAFFLLETLNRPLPETIEDIQNWHKQVQKTKQESEAEKASQIIPLKTGG

Columns and labels:
[1] = cited from earlier work
[2] = substrate: O=C(O)c1ccc(C(=O)O)c(-c2c3ccc(=O)cc-3oc3cc(O)ccc23)c1; test: 6-CF uptake by rOat3-expressing HEK293 cells; format: cell-based, rat; details: other: HEK293-rOat3, 2 min, 37 °C, pH 7.4, 1-100 μM 6-CF

Molecule | Binding to serum protein [1] [%] | Km [2] [µM]
carboxyfluorescein | ~90 | 
B1 |  | 2.52 ± 0.48
